Test results as given in patent publication US20230365546A1, “5-SUBSTITUTED INDOLE 3-AMIDE DERIVATIVES, PREPARATION METHOD AND USE THEREOF” (ORIGIANT PHARMACEUTICAL CO., LTD, priority 2020, published 2023).

How the values were obtained:
Assay in all cases: Kinase Profiler 10 μM panel
[1] = molecular target: PI3 Kinase (p110b/p85a)(m) (Mus musculus (Mouse), UniProt Q8BTI9)
Description: (§1) In vitro kinase assays were conducted using Kinase Profiler services provided by Eurofins. The experimental method was as follows: the small molecule compound to be tested (0.001-10 μM), the protein kinase to be tested were incubated with a buffer containing substrate, 10 mM magnesium acetate, and [γ-^33P-ATP], the reaction was started by adding Mg\TPmix, after incubation for a period of time at room temperature, a 3% phosphate solution was added to the buffer to stop the reaction. Subsequently, 10 μL of the reaction mixture was quantitatively pipetted onto P30 filter paper, which was washed three times with 75 mM phosphate solution and then once with methanol. The P30 filter paper was air-dried and scintillation fluid was added for scintillation counting.

[2] = molecular target: STK32A(h) (Homo sapiens (Human), UniProt Q8WU08)
Description: as §1

[3] = molecular target: DCAMKL3(h) (Homo sapiens (Human), UniProt Q9C098)
[4] = molecular target: Abl(h) (Homo sapiens (Human), UniProt P00519)
Description: as §1

[5] = molecular target: CDK2/cyclinA(h) (Homo sapiens (Human), UniProt P24941)
Description: as §1

[6] = molecular target: IKKa(h) (Homo sapiens (Human), UniProt O15111)
Sequence of IKKa(h) (O15111 whole entry): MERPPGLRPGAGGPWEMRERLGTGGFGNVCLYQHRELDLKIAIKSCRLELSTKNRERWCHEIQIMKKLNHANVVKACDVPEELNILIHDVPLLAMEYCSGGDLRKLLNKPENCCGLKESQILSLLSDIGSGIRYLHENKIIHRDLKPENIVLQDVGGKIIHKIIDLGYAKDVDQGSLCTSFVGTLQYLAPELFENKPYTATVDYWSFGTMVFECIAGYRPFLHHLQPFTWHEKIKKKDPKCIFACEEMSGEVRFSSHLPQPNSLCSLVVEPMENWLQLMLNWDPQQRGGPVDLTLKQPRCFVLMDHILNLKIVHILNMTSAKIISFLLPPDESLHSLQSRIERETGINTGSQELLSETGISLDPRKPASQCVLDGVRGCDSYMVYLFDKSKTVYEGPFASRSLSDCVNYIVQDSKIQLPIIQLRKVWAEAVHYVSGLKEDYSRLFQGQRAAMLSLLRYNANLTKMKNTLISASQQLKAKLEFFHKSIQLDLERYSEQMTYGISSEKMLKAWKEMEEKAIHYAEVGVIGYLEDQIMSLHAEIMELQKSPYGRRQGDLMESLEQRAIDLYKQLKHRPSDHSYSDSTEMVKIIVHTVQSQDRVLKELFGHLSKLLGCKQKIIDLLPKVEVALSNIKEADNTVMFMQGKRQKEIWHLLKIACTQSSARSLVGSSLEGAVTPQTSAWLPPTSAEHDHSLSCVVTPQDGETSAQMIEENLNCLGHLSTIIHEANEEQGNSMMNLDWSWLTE
Description: as §1

[7] = molecular target: IGF-1R(h) (Homo sapiens (Human), UniProt P08069)
Description: as §1

[8] = molecular target: NEK11(h) (Homo sapiens (Human), UniProt Q8NG66)
Description: as §1

[9] = molecular target: EGFR(L861Q)(h) (Homo sapiens (Human), UniProt P00533, L861Q)
Description: as §1

[10] = molecular target: CDKL4(h) (Homo sapiens (Human), UniProt Q5MAI5)
Description: as §1

[11] = molecular target: Ros(h) (Homo sapiens (Human), UniProt P08922)
Description: as §1

[12] = molecular target: MAK(h) (Homo sapiens (Human), UniProt P20794)
Sequence of MAK(h) (P20794 whole entry): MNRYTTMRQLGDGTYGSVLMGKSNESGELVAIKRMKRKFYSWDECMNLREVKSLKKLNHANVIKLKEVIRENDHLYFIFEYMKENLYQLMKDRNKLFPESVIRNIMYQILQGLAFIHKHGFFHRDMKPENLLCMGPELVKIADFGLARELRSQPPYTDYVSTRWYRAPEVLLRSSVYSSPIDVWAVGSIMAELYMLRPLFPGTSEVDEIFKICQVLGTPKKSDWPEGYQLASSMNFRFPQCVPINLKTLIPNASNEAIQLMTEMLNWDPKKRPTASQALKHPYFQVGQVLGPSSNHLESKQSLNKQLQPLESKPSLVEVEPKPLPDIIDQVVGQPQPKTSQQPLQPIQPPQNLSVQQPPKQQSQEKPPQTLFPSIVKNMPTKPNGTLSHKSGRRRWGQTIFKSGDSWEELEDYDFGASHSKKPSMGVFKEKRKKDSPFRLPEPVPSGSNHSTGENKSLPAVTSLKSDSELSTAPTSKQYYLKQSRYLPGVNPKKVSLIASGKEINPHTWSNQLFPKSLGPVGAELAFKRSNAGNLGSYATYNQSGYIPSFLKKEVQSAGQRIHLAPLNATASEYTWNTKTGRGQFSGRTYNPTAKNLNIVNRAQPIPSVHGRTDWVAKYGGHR
Description: as §1

[13] = molecular target: STK32B(h) (Homo sapiens (Human), UniProt Q9NY57)
Description: as §1

[14] = molecular target: TGFBR2(h) (Homo sapiens (Human), UniProt P37173)
Description: as §1

[15] = molecular target: WNK3(h) (Homo sapiens (Human), UniProt Q9BYP7)
Description: as §1

[16] = molecular target: EphB4(h) (Homo sapiens (Human), UniProt P54760)
Description: as §1

[17] = molecular target: LTK(h) (Homo sapiens (Human), UniProt P29376)
Description: as §1

[18] = molecular target: Plk4(h) (Homo sapiens (Human), UniProt O00444)
Description: as §1

[19] = molecular target: CLK3(h) (Homo sapiens (Human), UniProt P49761)
Description: as §1

[20] = molecular target: EphA8(h) (Homo sapiens (Human), UniProt P29322)
Sequence of EphA8(h) (P29322 28-1005): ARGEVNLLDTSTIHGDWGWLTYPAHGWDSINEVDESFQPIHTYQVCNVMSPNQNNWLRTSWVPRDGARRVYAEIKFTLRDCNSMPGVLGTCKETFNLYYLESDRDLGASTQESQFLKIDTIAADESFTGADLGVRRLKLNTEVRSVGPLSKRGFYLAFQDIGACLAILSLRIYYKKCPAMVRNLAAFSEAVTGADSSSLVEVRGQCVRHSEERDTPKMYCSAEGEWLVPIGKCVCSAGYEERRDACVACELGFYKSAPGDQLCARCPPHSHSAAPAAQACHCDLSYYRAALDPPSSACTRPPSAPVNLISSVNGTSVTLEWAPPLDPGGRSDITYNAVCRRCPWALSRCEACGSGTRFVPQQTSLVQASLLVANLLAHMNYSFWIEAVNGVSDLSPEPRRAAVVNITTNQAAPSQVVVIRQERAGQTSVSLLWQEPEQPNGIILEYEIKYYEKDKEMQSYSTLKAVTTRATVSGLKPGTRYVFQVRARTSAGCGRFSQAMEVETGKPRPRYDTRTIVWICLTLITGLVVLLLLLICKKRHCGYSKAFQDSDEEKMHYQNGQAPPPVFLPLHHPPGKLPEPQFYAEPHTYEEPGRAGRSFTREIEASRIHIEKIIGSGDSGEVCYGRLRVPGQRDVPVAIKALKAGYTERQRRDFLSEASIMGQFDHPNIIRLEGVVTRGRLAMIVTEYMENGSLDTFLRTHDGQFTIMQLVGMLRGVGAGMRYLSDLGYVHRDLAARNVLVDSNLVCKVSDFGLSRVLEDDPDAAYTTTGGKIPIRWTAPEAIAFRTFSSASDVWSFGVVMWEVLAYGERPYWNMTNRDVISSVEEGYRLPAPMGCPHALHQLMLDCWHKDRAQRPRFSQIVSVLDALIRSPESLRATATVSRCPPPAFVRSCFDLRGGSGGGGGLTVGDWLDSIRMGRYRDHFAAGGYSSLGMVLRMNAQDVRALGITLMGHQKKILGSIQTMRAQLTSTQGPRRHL
Description: as §1

[21] = molecular target: MKK6(h) (Homo sapiens (Human), UniProt P52564)
Description: as §1

[22] = molecular target: CaMKK2(h) (Homo sapiens (Human), UniProt Q96RR4)
Description: as §1

[23] = molecular target: PI3 Kinase (p110a(E545K)/p85a)(m) (Mus musculus (Mouse), UniProt P42337, E545K)
Sequence of PI3 Kinase (p110a(E545K)/p85a)(m) (P42337 whole entry E545K): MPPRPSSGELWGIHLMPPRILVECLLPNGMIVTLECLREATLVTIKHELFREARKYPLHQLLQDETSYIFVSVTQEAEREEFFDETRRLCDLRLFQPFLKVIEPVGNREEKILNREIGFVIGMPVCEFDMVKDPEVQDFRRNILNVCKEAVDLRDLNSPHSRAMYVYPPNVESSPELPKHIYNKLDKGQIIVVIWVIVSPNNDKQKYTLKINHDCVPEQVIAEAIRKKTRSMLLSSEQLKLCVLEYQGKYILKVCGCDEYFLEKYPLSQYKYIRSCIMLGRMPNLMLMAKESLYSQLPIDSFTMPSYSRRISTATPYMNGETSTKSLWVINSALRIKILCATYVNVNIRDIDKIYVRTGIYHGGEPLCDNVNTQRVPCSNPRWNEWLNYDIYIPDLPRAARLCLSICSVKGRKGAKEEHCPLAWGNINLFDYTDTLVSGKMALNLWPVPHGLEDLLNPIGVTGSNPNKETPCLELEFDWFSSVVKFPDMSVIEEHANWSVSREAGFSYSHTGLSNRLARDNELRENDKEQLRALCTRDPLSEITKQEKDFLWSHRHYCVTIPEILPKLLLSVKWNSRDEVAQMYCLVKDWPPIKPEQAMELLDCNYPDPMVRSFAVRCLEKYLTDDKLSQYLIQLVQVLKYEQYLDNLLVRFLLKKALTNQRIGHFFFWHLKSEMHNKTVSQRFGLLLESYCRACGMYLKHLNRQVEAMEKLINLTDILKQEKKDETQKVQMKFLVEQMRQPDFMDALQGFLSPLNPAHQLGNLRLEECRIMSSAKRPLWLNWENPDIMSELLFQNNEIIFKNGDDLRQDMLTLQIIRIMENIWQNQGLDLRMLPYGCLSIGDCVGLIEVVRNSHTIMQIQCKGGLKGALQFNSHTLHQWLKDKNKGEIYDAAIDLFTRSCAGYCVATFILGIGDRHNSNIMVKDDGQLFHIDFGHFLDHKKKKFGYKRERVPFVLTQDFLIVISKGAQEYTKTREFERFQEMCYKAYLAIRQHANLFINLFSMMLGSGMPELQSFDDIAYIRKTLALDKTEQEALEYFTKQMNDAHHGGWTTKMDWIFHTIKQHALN
Sequence of PI3 Kinase (p110a(E545K)/p85a)(m) (P26450 whole entry partner): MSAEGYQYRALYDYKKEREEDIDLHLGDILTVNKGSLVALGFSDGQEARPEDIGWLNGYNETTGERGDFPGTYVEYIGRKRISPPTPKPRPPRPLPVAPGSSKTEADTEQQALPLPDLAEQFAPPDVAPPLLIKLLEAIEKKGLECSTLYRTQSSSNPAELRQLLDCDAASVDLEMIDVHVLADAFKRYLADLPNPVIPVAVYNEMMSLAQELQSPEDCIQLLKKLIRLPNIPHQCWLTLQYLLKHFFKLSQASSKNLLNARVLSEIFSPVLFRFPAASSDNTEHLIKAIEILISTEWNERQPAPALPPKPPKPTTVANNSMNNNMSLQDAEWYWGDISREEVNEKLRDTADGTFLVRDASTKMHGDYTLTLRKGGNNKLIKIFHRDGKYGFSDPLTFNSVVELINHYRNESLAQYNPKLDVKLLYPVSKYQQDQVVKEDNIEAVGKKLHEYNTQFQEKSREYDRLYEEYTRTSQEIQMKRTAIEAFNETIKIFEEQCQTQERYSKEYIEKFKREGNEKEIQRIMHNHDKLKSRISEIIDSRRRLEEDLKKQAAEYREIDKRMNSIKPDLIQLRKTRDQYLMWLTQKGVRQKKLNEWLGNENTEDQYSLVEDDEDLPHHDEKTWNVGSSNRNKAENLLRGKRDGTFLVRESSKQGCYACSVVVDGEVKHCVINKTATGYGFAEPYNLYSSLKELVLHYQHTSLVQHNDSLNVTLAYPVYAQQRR
Description: as §1

[24] = molecular target: Abl (H396P)(h) (Homo sapiens (Human), UniProt P00519, H396P)
Description: as §1

[25] = molecular target: WNK2(h) (Homo sapiens (Human), UniProt Q9Y3S1)
Description: as §1

[26] = molecular target: WNK4(h) (Homo sapiens (Human), UniProt Q96J92)
Description: as §1

[27] = molecular target: WNK1(h) (Homo sapiens (Human), UniProt Q9H4A3)
Description: as §1

[28] = molecular target: Mer(h) (Homo sapiens (Human), UniProt Q12866)
Description: as §1

[29] = molecular target: HIPK4(h) (Homo sapiens (Human), UniProt Q8NE63)
Sequence of HIPK4(h) (Q8NE63 whole entry): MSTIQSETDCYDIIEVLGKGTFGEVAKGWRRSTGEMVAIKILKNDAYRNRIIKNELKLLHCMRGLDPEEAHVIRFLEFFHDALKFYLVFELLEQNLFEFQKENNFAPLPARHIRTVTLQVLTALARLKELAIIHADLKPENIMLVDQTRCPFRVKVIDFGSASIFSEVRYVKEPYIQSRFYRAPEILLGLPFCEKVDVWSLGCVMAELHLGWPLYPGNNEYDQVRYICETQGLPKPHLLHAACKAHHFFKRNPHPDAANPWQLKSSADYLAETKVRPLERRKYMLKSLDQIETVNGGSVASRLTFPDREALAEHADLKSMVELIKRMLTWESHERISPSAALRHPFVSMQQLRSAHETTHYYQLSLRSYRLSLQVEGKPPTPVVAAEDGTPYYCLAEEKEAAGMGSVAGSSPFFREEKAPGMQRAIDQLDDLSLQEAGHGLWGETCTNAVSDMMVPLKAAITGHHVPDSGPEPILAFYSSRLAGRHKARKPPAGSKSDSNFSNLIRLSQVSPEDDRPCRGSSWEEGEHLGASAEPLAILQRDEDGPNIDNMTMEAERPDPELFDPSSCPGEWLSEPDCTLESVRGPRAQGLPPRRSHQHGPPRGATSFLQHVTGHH
Description: as §1

[30] = molecular target: GRK7(h) (Homo sapiens (Human), UniProt Q8WTQ7)
Description: as §1

[31] = molecular target: MAPKAP-K3(h) (Homo sapiens (Human), UniProt Q16644)
Description: as §1

[32] = molecular target: HPK1(h) (Homo sapiens (Human), UniProt Q92918)
Description: as §1

[33] = molecular target: LIMK1(h) (Homo sapiens (Human), UniProt P53667)
Description: as §1

C[C@H](NC(=O)c1cn(C)c2ccc(-c3ccn4nc(NC(=O)C5CC5)nc4c3)cc12)c1cccc(F)c1 [Compound 94, (S)-5-(2-(cyclopropanecarboxamido)-[1,2,4]triazolo[1,5-a]pyridin-7-yl)-N-(1-(3-fluorophenyl)ethyl)-1-methyl-1H-indole-3-carboxamide]
Inhibition ratio/% [1]: 10% | Inhibition ratio/% [2]: 55% | Inhibition ratio/% [3]: 33% | Inhibition ratio/% [4]: 32% | Inhibition ratio/% [5]: 24% | Inhibition ratio/% ([6]; IKKα(h)): 29% | Inhibition ratio/% [7]: −4% | Inhibition ratio/% [8]: 44% | Inhibition ratio/% [9]: 75% | Inhibition ratio/% [10]: 76% | Inhibition ratio/% [11]: −18% | Inhibition ratio/% [12]: 45% | Inhibition ratio/% [13]: 27% | Inhibition ratio/% [14]: −6% | Inhibition ratio/% [15]: −20% | Inhibition ratio/% [16]: 56% | Inhibition ratio/% [17]: 5% | Inhibition ratio/% [18]: 15% | Inhibition ratio/% [19]: 35% | Inhibition ratio/% [20]: 4% | Inhibition ratio/% [21]: 30% | Inhibition ratio/% [22]: 63% | Inhibition ratio/% [23]: 32% | Inhibition ratio/% [24]: 34% | Inhibition ratio/% [25]: 6% | Inhibition ratio/% [26]: 48% | Inhibition ratio/% [27]: 45% | Inhibition ratio/% [28]: −6% | Inhibition ratio/% [29]: 68% | Inhibition ratio/% [30]: −16% | Inhibition ratio/% [31]: −12% | Inhibition ratio/% [32]: −3% | Inhibition ratio/% [33]: −1%

C[C@H](NC(=O)c1c[nH]c2ccc(-c3ccc4nc(NC(=O)C5CC5)sc4c3)cc12)c1cccc(F)c1 [Compound 34, (S)-5-(2-(cyclopropanecarboxamido)benzo[d]thiazol-6-yl)-N-(1-(3-fluorophenyl)ethyl)-1H-indole-3-carboxamide]
Inhibition ratio [1]: 15% | Inhibition ratio [2]: 16% | Inhibition ratio [3]: 8% | Inhibition ratio [4]: 102% | Inhibition ratio [5]: 11% | Inhibition ratio ([6]; IKKa(h)): 5% | Inhibition ratio [7]: 28% | Inhibition ratio [8]: 35% | Inhibition ratio [9]: 49% | Inhibition ratio [10]: 56% | Inhibition ratio [11]: 31% | Inhibition ratio [12]: 2% | Inhibition ratio [13]: −2% | Inhibition ratio [14]: 25% | Inhibition ratio [15]: 18% | Inhibition ratio [16]: 11% | Inhibition ratio [17]: 23% | Inhibition ratio [18]: 14% | Inhibition ratio [19]: 35% | Inhibition ratio [20]: 85% | Inhibition ratio [21]: 7% | Inhibition ratio [22]: 34% | Inhibition ratio [23]: 24% | Inhibition ratio [24]: 98% | Inhibition ratio [25]: 38% | Inhibition ratio [26]: 17% | Inhibition ratio [27]: 10% | Inhibition ratio [28]: 97% | Inhibition ratio [29]: 95% | Inhibition ratio [30]: 4% | Inhibition ratio [31]: −1% | Inhibition ratio [32]: 75% | Inhibition ratio [33]: 14%
